One data set is described as follows: in vivo. As to conditions: male, beagle, dog, plasma, po, 500 mg.
The conditions of data set [1]: Beagle dog, oral, 500 mg, 1 dose.
For data set [2] the following is noted: cited from earlier work.

Structures are written as SMILES. Counter-ions that a name gives are not always drawn. Some results are limits rather than exact numbers.

Usually AUC(0-inf) stands for the area under the concentration-time curve extrapolated to infinity. A low value points to less exposure. Usually AUC(0-t) stands for the area under the concentration-time curve up to a stated or last time point. Read a low AUC(0-t) as less exposure. The term Cmax denotes the peak of the concentration-time curve. By MRT is commonly meant a mean duration of stay, worked out from the concentration-time curve. By Tmax is commonly meant the time at which the peak concentration occurs. For the molecule `CN(C)C(=N)N=C(N)N` [Metformin (Matrix-free), metformin hydrochloride], in the data set “in vivo”, the area under the curve AUC(0-inf) stood at 81200 ng·h/mL, the area under the curve AUC(0-t) was 77900 ng·h/mL, the highest level (Cmax) was 12400 ng/mL and the MRT came out at 8.02 h. Besides, the Tmax in “in vivo” is 1.3 h. In data set [1], the “Ke (terminal elimination rate per hour)” value was 0.157 h⁻¹.
Regarding `CN(C)C(=N)N=C(N)N` [Metformin], in data set [2] (estimated), the “Time to complete absorption after administration” value was no more than 6 h. Besides, in data set [2] (in vivo), the “Absorbed in the remaining part of (lower) intestine tract” value is reported as “about 40%” and the Recovered in faeces result is “up to 30%”.

These data come from US20240293327A1, “MONOLITHIC TABLETS BASED ON CARBOXYL POLYMERIC COMPLEXES FOR CONTROLLED DRUG RELEASE” (MATRIPHARM INTERNATIONAL INC., priority 2014, published 2024).
